Measurements from PubChem BioAssay (NCI).
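Interpolation was linear, between the two tested concentrations surrounding the appropriate level; five concentrations were tested over 48 hours in 96-well plates. GI50 = concentration required for 50% inhibition of growth. The concentration for full growth arrest is given as TGI.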

What was measured:
Experiment in all cases: DTP human tumour cell line panel, 48 h
A549 NSCLC = system: A549 NSCLC
CCRF-CEM leukemia = system: CCRF-CEM leukemia
DMS 114 small cell lung = system: DMS 114 small cell lung
RXF 393 renal = system: RXF 393 renal
SK-MEL-2 melanoma = system: SK-MEL-2 melanoma
SNB-78 CNS = system: SNB-78 CNS
HL-60(TB) leukemia = system: HL-60(TB) leukemia
OVCAR-3 ovarian = system: OVCAR-3 ovarian
A498 renal = system: A498 renal
HS 578T breast = system: HS 578T breast

SMILES | TGI (A549 NSCLC) | TGI (CCRF-CEM leukemia) | TGI (DMS 114 small cell lung) | TGI (RXF 393 renal) | TGI (SK-MEL-2 melanoma) | TGI (SNB-78 CNS) | TGI (HL-60(TB) leukemia) | TGI (OVCAR-3 ovarian) | TGI (A498 renal) | GI50 (A498 renal) | GI50 (A549 NSCLC) | GI50 (CCRF-CEM leukemia) | GI50 (DMS 114 small cell lung) | GI50 (HL-60(TB) leukemia) | GI50 (OVCAR-3 ovarian) | GI50 (RXF 393 renal) | GI50 (SK-MEL-2 melanoma) | GI50 (SNB-78 CNS) | GI50 (HS 578T breast) | TGI (HS 578T breast)
O=C(O)CNS(=O)(=O)c1ccc(NCc2ccccc2)cc1 | > 100 µM | > 100 µM | > 100 µM | > 100 µM | > 100 µM | > 100 µM | – | – | – | – | – | – | – | – | – | – | – | – | – | –
O=C(/N=N/C(=O)OCc1ccccc1)OCc1ccccc1 | > 100 µM | > 100 µM | > 100 µM | > 100 µM | > 100 µM | > 100 µM | > 100 µM | > 100 µM | – | – | – | – | – | – | – | – | – | – | – | –
Brc1cccc(C=NC23CC4CC(CC(C4)C2)C3)c1 | > 100 µM | > 100 µM | > 100 µM | > 100 µM | > 100 µM | > 100 µM | > 100 µM | > 100 µM | > 100 µM | – | – | – | – | – | – | – | – | – | – | –
NC(CCC(=O)NC(CSSCCCCS(=O)O)C(=O)NCC(=O)O)C(=O)O (configuration not stated) | > 100 µM | > 100 µM | > 100 µM | > 100 µM | > 100 µM | > 100 µM | – | > 100 µM | > 100 µM | – | – | – | – | – | – | – | – | – | – | –
CCC[CH2][Sn]1([CH2]CCC)[O]Cc2nc(C)ccc2[O]1 | 33.1 µM | 5.01 µM | 9.3 µM | 19.9 µM | 8.8 µM | 6.39 µM | 4.64 µM | 17 µM | 26.8 µM | 13.3 µM | 19 µM | 1.87 µM | 3.07 µM | 1.58 µM | 5.05 µM | 8.15 µM | 3.32 µM | 2.38 µM | – | –
O=C(/C=C/c1c(O)ccc2ccccc12)c1cccc(O)c1 | > 100 µM | > 100 µM | > 77.3 µM | > 100 µM | > 100 µM | > 100 µM | > 64.3 µM | > 100 µM | > 100 µM | – | – | – | – | – | – | – | – | – | – | –
N#Cc1cc([N+](=O)[O-])ccc1NC(=O)C(=O)Nc1n[nH]c(N)n1 | > 100 µM | > 100 µM | > 100 µM | > 100 µM | > 100 µM | > 100 µM | > 100 µM | > 100 µM | > 100 µM | – | – | – | – | – | – | – | – | – | – | –
CC[CH2][Sn]([CH2]CC)([O]C(=O)c1cccnc1SC)[O][Sn]([CH2]CC)([CH2]CC)[O]C(=O)c1cccnc1SC | 6.24 µM | 0.756 µM | 0.222 µM | 0.342 µM | 0.823 µM | 1.14 µM | 4.24 µM | 1.85 µM | 0.629 µM | 0.246 µM | 3.2 µM | 0.0691 µM | 0.0726 µM | 0.26 µM | 0.583 µM | 0.0992 µM | 0.299 µM | 0.138 µM | 1.5 µM | 6.36 µM
CC(=O)CNC(=O)OC(C)(C)C | > 100 µM | > 100 µM | > 100 µM | > 100 µM | > 100 µM | > 100 µM | > 100 µM | > 100 µM | > 100 µM | – | – | – | – | – | – | – | – | – | – | –
CC(C)C(=O)NC(=S)Nc1ccc([N+](=O)[O-])cc1C#N | > 100 µM | > 100 µM | > 100 µM | > 100 µM | > 100 µM | > 100 µM | > 100 µM | > 100 µM | > 100 µM | – | – | – | – | – | – | – | – | – | – | –
CC1=NN(C(=O)Nc2ccccc2)C(=O)C2CCC(=O)N12 (configuration not stated) | > 100 µM | > 100 µM | > 100 µM | > 100 µM | > 100 µM | > 100 µM | > 100 µM | > 100 µM | > 100 µM | – | – | – | – | – | – | – | – | – | – | –
O=C1CCC2(c3ccc(F)cc3)Nc3cc(Cl)ccc3N12 (configuration not stated) | > 100 µM | > 100 µM | > 100 µM | > 100 µM | > 100 µM | > 100 µM | > 100 µM | > 100 µM | > 100 µM | – | – | – | – | – | – | – | – | – | – | –
C/C(CC(=O)Nc1ccc(C)cc1C)=N/N=C(N)N | > 100 µM | > 100 µM | > 100 µM | > 100 µM | > 100 µM | > 100 µM | > 100 µM | > 100 µM | > 100 µM | – | – | – | – | – | – | – | – | – | – | –
O=C1O[C@@H](c2ccc3c(c2)OCO3)C2C(=O)O[C@@H](c3ccc4c(c3)OCO4)C12 (some centres not stated) | > 100 µM | > 100 µM | > 100 µM | > 100 µM | > 100 µM | > 100 µM | > 100 µM | > 100 µM | > 100 µM | – | – | – | – | – | – | – | – | – | – | –
NC(=O)C(=O)N/N=C(\CC1(O)C(=O)Nc2ccccc21)c1ccc2ccccc2c1 (configuration not stated) | 43.9 µM | 48.5 µM | 55.4 µM | 41.2 µM | 48.5 µM | > 100 µM | 36.5 µM | 67.3 µM | 82.1 µM | – | – | – | – | – | – | – | – | – | – | –
O=c1c2cc([N+](=O)[O-])ccc2sc2ccsc12 | > 100 µM | > 100 µM | > 100 µM | > 100 µM | > 100 µM | > 100 µM | > 100 µM | > 100 µM | > 100 µM | – | – | – | – | – | – | – | – | – | – | –
CC(C)(C)C1C=C(Sc2ccccc2)C(=O)O1 (configuration not stated) | > 100 µM | > 100 µM | > 100 µM | – | > 100 µM | > 100 µM | 55.7 µM | > 100 µM | > 100 µM | – | – | – | – | – | – | – | – | – | – | –
COc1ccc(/C=C/CN(C)CCc2ccccc2)cc1OC | > 100 µM | – | > 100 µM | > 100 µM | > 100 µM | > 100 µM | – | > 100 µM | – | – | – | – | – | – | – | – | – | – | – | –
CCC[CH2][Sn]([CH2]CCC)([O]C(=O)c1cccnc1SC)[O]C(=O)c1cccnc1SC | 20.6 µM | – | 0.829 µM | 1.12 µM | 1.39 µM | 1.52 µM | 1.05 µM | 2.63 µM | 1.95 µM | 0.676 µM | 6.7 µM | – | 0.128 µM | 0.16 µM | 1.33 µM | 0.21 µM | 0.311 µM | 0.0893 µM | – | –
COC(=O)C1Cc2c(n(Cc3ccccc3)c3ccccc23)C(CCC(=O)O)N1C(C)C (configuration not stated) | > 100 µM | > 100 µM | > 100 µM | – | > 100 µM | > 100 µM | > 100 µM | > 100 µM | > 100 µM | – | – | – | – | – | – | – | – | – | – | –
CN1CCN(C)C12C=c1ccccc1=CC21CC1 | > 100 µM | 58.2 µM | 36.3 µM | > 92.6 µM | 53.7 µM | > 100 µM | 46.1 µM | > 100 µM | > 100 µM | – | – | – | – | – | – | – | – | – | – | > 31.6 µM
